Laboratory results as given in publication PMC8482771 (ACS Omega, 2021).

What was measured:
Assay type in all cases: cell-based
h-P2X2R [1] = biological target: T1, h-P2X2R (Homo sapiens, UniProt Q9UBL9); assay: Ca2+ influx assay
T1 sequence (Q9UBL9 1-471): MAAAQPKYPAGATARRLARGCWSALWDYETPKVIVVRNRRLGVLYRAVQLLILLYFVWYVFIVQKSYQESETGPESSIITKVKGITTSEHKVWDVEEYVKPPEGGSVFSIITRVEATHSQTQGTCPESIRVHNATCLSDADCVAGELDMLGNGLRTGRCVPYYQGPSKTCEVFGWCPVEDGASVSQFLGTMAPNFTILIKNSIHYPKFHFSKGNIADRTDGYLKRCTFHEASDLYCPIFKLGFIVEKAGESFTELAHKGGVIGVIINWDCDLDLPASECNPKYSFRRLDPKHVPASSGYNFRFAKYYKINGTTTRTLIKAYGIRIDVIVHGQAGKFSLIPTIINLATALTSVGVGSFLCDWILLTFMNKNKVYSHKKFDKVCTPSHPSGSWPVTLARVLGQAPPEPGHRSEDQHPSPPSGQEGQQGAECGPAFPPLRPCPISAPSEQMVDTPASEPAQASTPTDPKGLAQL

h-P2X4R [2] = biological target: T2, h-P2X4R (Homo sapiens, UniProt Q99571); assay: Ca2+ influx assay
T2 sequence (Q99571 1-388): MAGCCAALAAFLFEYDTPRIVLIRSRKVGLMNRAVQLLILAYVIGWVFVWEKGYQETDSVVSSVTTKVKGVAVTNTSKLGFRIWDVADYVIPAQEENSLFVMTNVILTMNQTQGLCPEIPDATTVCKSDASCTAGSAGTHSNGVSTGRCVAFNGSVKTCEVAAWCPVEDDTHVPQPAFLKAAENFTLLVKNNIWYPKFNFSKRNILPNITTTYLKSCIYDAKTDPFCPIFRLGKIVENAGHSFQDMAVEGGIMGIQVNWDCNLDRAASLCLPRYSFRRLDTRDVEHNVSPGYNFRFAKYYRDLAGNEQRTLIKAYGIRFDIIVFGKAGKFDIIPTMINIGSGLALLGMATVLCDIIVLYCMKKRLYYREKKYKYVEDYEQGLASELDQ

h-P2X2R [3] = biological target: T1, h-P2X2R; assay: Mode of inhibition: ATP dose-response curve without and with inhibitor, h-P2X2R
h-P2X5 receptor = h-P2X5 receptor (Homo sapiens, UniProt Q93086); assay: Ca2+ influx assay
Chain of h-P2X5 receptor (Q93086 whole entry): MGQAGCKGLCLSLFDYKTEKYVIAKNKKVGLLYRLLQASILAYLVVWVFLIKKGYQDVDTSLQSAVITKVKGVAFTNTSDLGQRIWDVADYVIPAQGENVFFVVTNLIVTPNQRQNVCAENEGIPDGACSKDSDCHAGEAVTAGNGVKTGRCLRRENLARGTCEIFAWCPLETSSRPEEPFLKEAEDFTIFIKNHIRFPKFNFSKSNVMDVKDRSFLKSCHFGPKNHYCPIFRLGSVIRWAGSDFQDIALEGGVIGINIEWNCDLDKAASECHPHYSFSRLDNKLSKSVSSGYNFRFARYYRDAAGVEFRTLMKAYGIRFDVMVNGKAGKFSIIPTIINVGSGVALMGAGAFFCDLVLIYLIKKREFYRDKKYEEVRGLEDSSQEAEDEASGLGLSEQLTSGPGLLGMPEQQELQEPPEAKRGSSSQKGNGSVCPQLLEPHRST

h-P2X4R [4] = biological target: T2, h-P2X4R; assay: Mode of inhibition: ATP dose-response curve without and with inhibitor, h-P2X4R

## Nc1ncnc2c1ncn2[C@@H]1O[C@H](COP(=O)(O)OP(=O)(O)OP(=O)(O)O)[C@@H](O)[C@H]1O [ATP, adenosine triphosphate, reference compound]
h-P2X2R [1]
  EC50: 1.48 µM
h-P2X4R [2]
  EC50: 9.29 µM
h-P2X2R [3]
  EC50: 1.08 µM
h-P2X5 receptor
  EC50: 10.6 µM
h-P2X4R [4]
  EC50: 2.59 µM
